How the values were obtained:
β-catenin = test: Cytosolic free β-catenin level in HEK293 cells; assay type: cell-based
Excerpt: Niclosamide (5-chloro-N-[2-chloro-4-nitrophenyl]-2-hydroxy benzamide), an FDA approved antihelminthic drug, suppresses Wnt/β-catenin signaling by inducing Wnt co-receptor LRP6 degradation in cancer cells. […] CI-994 is an orally active class I histone deacetylase (HDAC) inhibitor [37]. CI-994 increased Wnt reporter activity (FIG. 2B) and cytosolic free β-catenin level in HEK293 cells.

[1] = test system: E. coli strain TOP10-pTac-lux-CDABE; test: Bacterial cytotoxicity evaluation (luminescence); details: 6.25-400 μM, 4 h
Protocol: In addition, bacterial cytotoxicity evaluation was performed using E. coli strain TOP10-pTac-lux-CDABE, expressing both luciferase (a heterodimer of LuxA and LuxB subunits) and the enzymes required for the production of luciferase substrate (LuxC, LuxD and LuxE). For the experiment, bacterial culture was grown overnight in LB medium at 37° C. with shaking at 250 rpm. The overnight culture was diluted 1:666 into fresh LB medium supplemented with 50 μg/ml kanamycin and incubated at 37° C. and 250 rpm to OD600 0.4-0.5. Serial dilutions of the test compounds in DMSO were prepared (40 mM, 20 mM, 10 mM, 5 mM, 2.5 mM, 1.25 mM, 0.625 mM) and 4 μl aliquots of each solution were transferred into 96-well plate and mixed with 96 μl of 0.9% NaCl. Then, 10 μl of the dilutions were dispensed into the appropriate wells of 384-well white screening microplate. 30 μl aliquots of freshly grown bacterial culture at OD600 of 0.4-0.5 were added to each well with compounds' dilutions (Final concentration of the test compounds were 400 μM, 200 μM, 100 μM, 50 μM, 25 μM, 12.5 μM, 6.25 μM). The plate was incubated for 4 h at 37° C. and the luminescence.

hCMEC/D3 cells = test: Cell viability assay (CellTiter-Glo) in hCMEC/D3 cells; assay type: cell-based, human; details: hCMEC/D3 cells, 0.3, 1, 3, 10 and 30 μM, 24 h
Protocol: The human brain endothelial capillary hCMEC/D3 cells were cultured with compounds at the indicated concentrations for 24 h. Cell viability was assessed by the Cell TitreGlo Assay system from Promega. Data represent mean±SD from three independent experiments. *P<0.05.
Cell viability assay: Human blood-brain barrier hCMEC/D3 cells were seeded into 96-well tissue culture treated microtiter plates at a density of 20,000 cells/well. After 24 h incubation, the cells were treated with the test compounds at the indicated concentrations for 24 h. Cell viability was measured by the CellTiter-Glo Assay (Promega), which is a luminescent assay that is an indicator of live cells as a function of metabolic activity and ATP content.

[2] = test system: E. coli: wp2[pKM101]+wp2 uvrA; test: Ames test, bacterial reverse mutation assay, E. coli; parameters: species or system Escherichia coli; details: 1011 and 1015 at 400 μM, mean ± SD, n = 3
Protocol: (§1) Ames test: According to the OECD Guidelines For Testing Of Chemicals, experiments with the tested agents, positive and negative controls, were conducted in triplicates on 6 tester strains, S. typhimurium: TA98, TA100, TA1535, TA1537 and E. coli: wp2[pKM101]+wp2 uvrA mixed 1:2. Dimethyl sulfoxide (DMSO) was used as the vehicle control for all tester strains in mutagenicity assay with and without metabolic activation. Compounds with known mutagenic activity were used as the positive controls in mutagenicity assay without metabolic activation: 2-nitrofluorene (0.1 μg/plate) for TA98, 4-nitroquinoline N-oxide (0.1 μg/plate) for TA100, sodium azide (0.2 μg/plate) for TA1535, 9-aminoacridine (7.5 μg/plate) for TA1537, and 4-nitroquinoline N-oxide (0.1 μg/plate) for E. coli. 2-Aminoantracene in final concentration 0.4 μg/ml was used as the positive control (the solution of 2-aminoantracene in DMSO was prepared immediately before experiment) in test with metabolic activation. For each experiment tester strain cultures were grown overnight in Oxoid nutrient broth #2 at 37° C. with shaking at 235 rpm to a density of 1-2×10^9 colony forming units/ml (OD600˜1.5). The S9 mix, which is consist of 9000 g supernatant fraction of rat liver homogenate (S9 fraction), was prepared immediately prior to its use in experimental procedure.
(§2) The tester strain (10 μl of overnight culture) was mixed with the test agent (10 μl of the DMSO stock) and GM liquid medium (30 μl) or S9 mix (30 μl). Then, 200 μl of molten top agar supplemented with histidine/biotin (final concentration 0.05 mM) for S. typhimurium and tryptophan (final concentration 0.025 mM) for E. coli were added to the tube (top agar was kept at 44° C. to prevent hardening). The mixed suspension was poured onto the surface of a GM agar plate (2.0 ml of GM agar per plate). After the top agar solidified, the plates were inverted and incubated at 37° C. for 48 hours. The results were expressed as number of revertant colonies per plate. The final concentrations of the test compounds in the mutagenicity assay with all tester strains in both the presence and absence of S9 mix were 400 μM. All concentrations were tested in triplicates.

S. typhimurium TA1535 = test: Ames test, bacterial reverse mutation assay, TA1535; parameters: species or system Salmonella typhimuium; details: 1011 and 1015 at 400 μM, mean ± SD, n = 3
Protocol: as §1, §2

[3] = test system: S. typhimuium and E. coli; test: Bacterial reverse mutation test, all tested strains (summary); parameters: species or system Salmonella typhimuium and Escherichia coli; details: 400 μM
Protocol: The bacterial reverse mutation test uses amino acid requiring strains of Salmonella typhimuium and Escherichia coli (E. coli) to detect chemical substances that can produce genetic damage and lead to gene mutations. The mutagenic potential of 1011 and 1015 and their metabolites was assessed by exposing bacterial strains to the compounds and evaluating at 400 μM, and evaluating the numbers of revertant colonies grown in the absence (trace quantities) of the amino acid.
Ames test: According to the OECD Guidelines For Testing Of Chemicals, experiments with the tested agents, positive and negative controls, were conducted in triplicates on 6 tester strains, S. typhimurium: TA98, TA100, TA1535, TA1537 and E. coli: wp2[pKM101]+wp2 uvrA mixed 1:2. Dimethyl sulfoxide (DMSO) was used as the vehicle control for all tester strains in mutagenicity assay with and without metabolic activation. […]
The tester strain (10 μl of overnight culture) was mixed with the test agent (10 μl of the DMSO stock) and GM liquid medium (30 μl) or S9 mix (30 μl). […] The results were expressed as number of revertant colonies per plate. […]

[4] = with metabolic activation (S9 mix)

Row | SMILES | cytosolic free β-catenin level (β-catenin) | cytotoxicity for bacterial cells [1] | cytotoxicity (cell viability) (hCMEC/D3 cells) | Number of revertant colonies per plate, E. coli [2, 4] | Number of revertant colonies per plate, E. coli ([2]; without metabolic activation) | Number of revertant colonies per plate, TA1535 (S. typhimurium TA1535; [4]) | Number of revertant colonies per plate, TA1535 (S. typhimurium TA1535; without metabolic activation) | mutagenic effects of test compounds and their metabolites [3]
1 | CC(=O)Nc1ccc(C(=O)Nc2ccccc2N)cc1 [CI-994, 4-(acetylamino)-N-(2-aminophenyl)benzamide, reference compound] | increased | – | – | – | – | – | – | –
2 | CC1CCCC(C)N1CCNC(=O)c1ccc(C(=O)Nc2ccccc2N)nc1 (stereo not drawn) [Compound 1011] | – | no cytotoxicity | not toxic at all the tested concentrations | 9.7 ± 3.2 revertant colonies per plate | 8.7 ± 2.1 revertant colonies per plate | 0.7 ± 0.6 revertant colonies per plate | 1.7 ± 2.1 revertant colonies per plate | no mutagenic effects
3 | Nc1ccccc1NC(=O)c1ccc(C(=O)NCC2CCN2C2CCCC2)cn1 (stereo not drawn) [Compound 1015] | – | no cytotoxicity | not toxic at or below the 10 μM concentration | 9.0 ± 2.7 revertant colonies per plate | 5.3 ± 4.7 revertant colonies per plate | 0.7 ± 1.2 revertant colonies per plate | 0.3 ± 0.6 revertant colonies per plate | no mutagenic effects

Reference: patent US20220267271A1, “WNT ACTIVATORS AND METHODS OF USE” (MAYO FOUNDATION FOR MEDICAL EDUCATION AND RESEARCH, priority 2019, published 2022)
